Data published in patent US10975056B2 (GlaxoSmithKline Intellectual Property Development Limited, priority 2016, dated 2021).
Where two headings read alike, the source gives them in different places.

Legend:
[1] = tested on: erythroid progenitor cells (EPCs); experiment: Fetal hemoglobin (HbF) ELISA in day 7 erythroid progenitor cells; type: cell-based, human; settings: for EC50: Homo sapiens, Erythroid progenitor cell, read-out: EPC ELISA (pEC50 category) (converted)
Protocol: Day 7 EPCs were cultured in duplicate plates with serially diluted Compound A for 5 days at 37° C. Wells were then analyzed for either induction of fetal hemoglobin (HbF,HbF ELISA) or cell growth (Cell Titer-Glo). In both cases, signal was normalized to vehicle-control treated cells.
Culture, Expansion, and Characterization of Day 7 Erythroid Progenitor Cells (EPC)s
All donors provided written informed consent for use of their samples, and the collection and use of the samples received institutional review board approval. All cryopreserved human bone marrow CD34+ cells used here were obtained from AlICells (Emeryville, Calif.) and were generally from different donors. The CD34+ cells were cultured to generate EPCs at day 7. Briefly, 1 million cells were cultured in 5% CO2, 5% O2 at 37° C. in H3000 Stemspan media (StemCell Technologies Vancouver, BC, Canada) supplemented with 2 mM L-glutamine, 40 μg/mL human low-density lipoproteins (StemCell Technologies), 10 ng/mL recombinant human (rh) interleukin IL-3 (R&D Systems, Minneapolis, Minn.), 100 ng/mL rh stem cell factor (R&D Systems), and 0.5 U/mL rh erythropoietin (Invitrogen, Grand Island, N.Y.). Cells were split and refed on day 4 with complete culture media described above and harvested on day 7 for evaluation of erythroid marker expression and assessment of γ-globin induction. Day 7 EPCs were then frozen in liquid nitrogen at 5 to 10 million cells/mL in 95% fetal bovine serum (FBS; Invitrogen) with 5% DMSO for subsequent use.
At the time of compound treatment, frozen day 7 EPCs prepared as described above were thawed, washed once and re-suspended in complete culture media as described above with the exception of an increase of rhEPO to 3 U/mL. Cells were counted and diluted to […] for plating into assay plates. Cells were then dispensed, at 30 μL per well with Multidrop™ Combi Reagent Dispenser (Thermo Scientific), into 384-well cell culture plates into which test compounds were pre-dispensed at 100 nL/well. Black Clear Bottom (Greiner Bio-One; 781090) and White (Greiner Bio-One; 781080) plates were used for ELISA and Cell Titer-Glo assays, respectively. The final cell density in the assays is 1,000 cells per well, with final compound concentrations between 33 nM (highest) and […] (lowest) for the 22-points serial dilution.
Fetal Hemoglobin (HbF) ELISA
Coating anti-HbF Ab (Bethyl Lab; cat. A80-136A) was diluted by 100-fold in the coating buffer (0.05 M carbonate-bicarbonate, pH 9.6), and then 20 μL/well was added to a 384-well MaxiSorp ELISA plate (Thermo Fisher; cat. 464718). After 1 hour incubation at room temperature, the plates were washed twice with ELISA washing buffer (50 mM Tris, 0.05% Tween 20, pH 8.0) with an EL406 plate washer (BioTek, Winooski, Vt.). Then, 40 μL/well of blocking buffer consisting of 50 mM Tris and 1% BSA (pH 8.0) was added to the plate and stored at 4° C. with cover sheet overnight, or until time of the assay. The coated ELISA plates were stable for up to 30 days at 4° C. On the day of assay, the plates were washed twice with ELISA washing buffer prior to addition of cell lysate.
After 5 days at 37° C. with 5% CO2 cell culture plates for ELISA assay were put into −80° C. freezer for a minimum of 2 hours. After thawing at room temperature, 30 μL of cell lysis buffer (Invitrogen; cat. FNN0011, supplemented with 1× protease inhibitor) was added to each well and the resulting cell lysate was mixed eight times with a Cybi-Well (Jena, Germany) pipettor. Following the mixing procedure, 20 μL/well of lysate was transferred to the coated ELISA plates described above followed by a 1 hour incubation at room temperature. The ELISA assay plates were washed three times with ELISA wash buffer. 20 μL per well of 1:75,000 to 100,000 diluted horseradish peroxidase (HRP) conjugate detection antiHbF Ab (Bethyl Labs; cat. A80-136P, diluted in 50 mM Tris [pH 8.0], 1% BSA, 0.05% Tween-20) was then added. […]

DNMT1 = DNMT1 (Homo sapiens, UniProt P26358); experiment: DNMT1 biochemical activity, breaklight assay and/or SPA assay; settings: binned activity in either the breaklight or the SPA assay; for IC50: read-out: DNMT1 BioChemical (pIC50 category) (converted)
DNMT1, sequence (P26358 whole entry, looked up): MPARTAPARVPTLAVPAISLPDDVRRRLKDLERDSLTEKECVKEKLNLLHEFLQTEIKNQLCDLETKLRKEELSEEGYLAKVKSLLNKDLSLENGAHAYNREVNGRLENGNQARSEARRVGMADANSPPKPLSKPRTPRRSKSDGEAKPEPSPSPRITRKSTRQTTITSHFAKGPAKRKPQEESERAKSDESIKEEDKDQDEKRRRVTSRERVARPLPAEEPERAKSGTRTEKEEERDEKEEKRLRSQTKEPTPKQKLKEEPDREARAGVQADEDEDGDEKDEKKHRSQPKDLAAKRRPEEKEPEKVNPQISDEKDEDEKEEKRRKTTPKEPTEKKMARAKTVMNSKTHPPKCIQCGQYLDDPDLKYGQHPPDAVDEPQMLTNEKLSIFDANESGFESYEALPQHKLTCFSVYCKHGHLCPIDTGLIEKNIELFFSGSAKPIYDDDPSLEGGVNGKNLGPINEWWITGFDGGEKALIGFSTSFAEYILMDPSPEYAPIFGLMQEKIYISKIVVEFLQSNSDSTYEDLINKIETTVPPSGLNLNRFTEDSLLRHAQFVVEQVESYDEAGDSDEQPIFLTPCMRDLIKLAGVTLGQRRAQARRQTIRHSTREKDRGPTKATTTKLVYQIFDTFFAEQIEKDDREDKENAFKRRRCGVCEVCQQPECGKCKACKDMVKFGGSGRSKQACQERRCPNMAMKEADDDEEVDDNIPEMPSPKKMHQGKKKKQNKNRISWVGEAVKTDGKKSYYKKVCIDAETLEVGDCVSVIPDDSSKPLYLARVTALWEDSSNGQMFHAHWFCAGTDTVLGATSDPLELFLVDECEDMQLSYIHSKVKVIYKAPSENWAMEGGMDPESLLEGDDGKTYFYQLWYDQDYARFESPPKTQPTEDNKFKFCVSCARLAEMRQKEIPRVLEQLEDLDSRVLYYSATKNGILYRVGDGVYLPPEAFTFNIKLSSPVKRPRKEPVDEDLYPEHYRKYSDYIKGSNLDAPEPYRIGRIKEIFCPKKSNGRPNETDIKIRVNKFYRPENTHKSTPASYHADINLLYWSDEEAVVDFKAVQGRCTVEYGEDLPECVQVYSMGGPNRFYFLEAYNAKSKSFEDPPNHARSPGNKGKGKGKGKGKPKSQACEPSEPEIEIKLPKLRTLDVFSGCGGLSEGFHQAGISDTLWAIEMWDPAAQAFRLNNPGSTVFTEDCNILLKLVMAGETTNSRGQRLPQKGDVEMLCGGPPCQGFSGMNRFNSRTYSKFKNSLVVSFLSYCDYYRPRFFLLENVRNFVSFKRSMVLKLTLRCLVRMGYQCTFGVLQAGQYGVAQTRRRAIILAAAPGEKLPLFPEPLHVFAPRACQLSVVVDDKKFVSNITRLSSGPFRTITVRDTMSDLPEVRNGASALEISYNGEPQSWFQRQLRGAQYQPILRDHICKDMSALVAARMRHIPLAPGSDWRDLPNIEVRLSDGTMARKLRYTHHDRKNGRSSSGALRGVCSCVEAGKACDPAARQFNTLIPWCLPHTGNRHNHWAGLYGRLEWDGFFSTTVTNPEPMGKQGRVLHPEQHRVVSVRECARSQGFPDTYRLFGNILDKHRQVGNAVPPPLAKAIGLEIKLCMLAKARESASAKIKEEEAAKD
Protocol: DNMT1 breaklight in vitro assays were conducted in a total volume of 50 μl in a standard 384 well format, using black non-binding surface microplates (Corning 3575). […] Negative control wells used 5 μl of DNMT1 and 5 μl of oligonucleotide but 0 μM SAM. All reagents were made up in 1× assay buffer (20 mM Tris pH 6.8, 25 mM NaCl, 0.5 mM MgCl2, 0.01% Triton X100 and 1 mM DTT). The reaction was incubated at 26° C. for 45 min and then stopped with the addition of 40 μl detection reagent. Detection reagent, made up in 1× Gla assay buffer (20 mM Tris pH 8.0, 80 mM NaCl, 0.75 mM MgCl2, 0.01% Triton X100 and 1 mM DTT) has a final concentration of 100 μM SAH (Sigma #A9384) and 0.0008 units/μl Gla1 restriction endonuclease (Sibenzyme #E494). Following addition of the detection reagent the plate was incubated in the dark at room temperature for 5 hr. Fluorescence intensity was then measured on the PHERAstar FS (BMG Labtech) at Ex 485 nm and Em 520 nm, with a gain of 400 and an integration time of 100 ms.
Biochemical activity of DNMT1 analyzed using SPA technology. Plates (Griener 784075) were pre-stamped with 100 nL/well of compound (11-point, 3-fold serial dilution). […] Low control wells contained 5 μL of buffer instead of enzyme. Following a 40 minute incubation, the reaction was quenched upon the addition of 10 μL of stop mixture containing 1 mM SAM (Sigma A7007) and 2 mg/mL PEI beads (Perkin Elmer RPNQ0098). Plates were sealed, centrifuged for 1 min and then read on a Viewlux (Perkin Elmer) using the 613 nm emission filter/300 s read time following a 30 minute dark adapt. Assay conditions prior to quench consisted of 40 nM DNMT1 (601-1600, produced internally), 100 nM 3H-SAM (American Radiolabeled Chemicals ART 0288), 900 nM SAM (New England BioLabs B9003S) and 200 nM hemi methylated DNA oligonucleotide (synthesized at Integrated DNA Technologies, 5′-[…]-3′) in 50 mM HEPES (pH 8.0), 2 mM MgCl2, 1 mM DTT, 0.01% NP-40 and 0.01% BSA.
Comments • 1. […] Where a field is empty, the compound was not tested in that assay.

EC50 ([1]; HbF ELISA, day 7 EPCs, 5 days) [nM] | DNMT1 BioChemical (pIC50 category) (DNMT1) | IC50 (DNMT1) [nM] | SMILES | EPC ELISA (pEC50 category) ([1]; HbF ELISA, day 7 EPCs, 5 days) | EC50 [1] [nM]
1000 to 31600 | D (Category D: ≥6.5) |  | CCc1c(C#N)c(S[C@H](C)c2ccc(N(C)S(C)(=O)=O)cc2)nc(N2CCC(N)CC2)c1C#N (single isomer, unassigned) [Example 681, N-(4-(1-((6-(4-aminopiperidin-1-yl)-3,5-dicyano-4-ethylpyridin-2-yl)thio)ethyl)phenyl)-N-methylmethanesulfonamide] |  | 
1000 to 31600 | D (Category D: ≥6.5) |  | CCc1c(C#N)c(S[C@H](C(N)=O)c2ccccc2)nc(N2C[C@H](O)CO2)c1C#N (single isomer, unassigned) [Example 694] |  | 
316 to 1000 |  | < 316 | CCc1c(C#N)c(SC(C(N)=O)c2ccccc2)nc(N2CCCN(C)CC2)c1C#N (single isomer, unassigned; isomer 1) [Example 254, 2-((3,5-dicyano-4-ethyl-6-(4-methyl-1,4-diazepan-1-yl)pyridin-2-yl)thio)-2-phenylacetamide (Isomer 1)] |  | 
 |  | 1000 to 31600 | CCc1c(C#N)c(SC(C(N)=O)c2ccccc2)nc(N2CCCN(C)CC2)c1C#N (single isomer, unassigned; isomer 2) [Example 255, 2-((3,5-dicyano-4-ethyl-6-(4-methyl-1,4-diazepan-1-yl)pyridin-2-yl)thio)-2-phenylacetamide (Isomer 2)] | C (Category C: 6.0 ≤ x < 6.5) | 
1000 to 31600 | D (Category D: ≥6.5) |  | CCc1c(C#N)c(SC(C(N)=O)c2ccccc2)nc(N2CC(OC(=O)C(N)C(C)C)C2)c1C#N (stereo in doubt) [Example 333, (2R)-1-(6-((2-Amino-2-oxo-1-phenylethyl)thio)-3,5-dicyano-4-ethylpyridin-2-yl)azetidin-3-yl 2-amino-3-methylbutanoate] |  | 
316 to 1000 | D (Category D: ≥6.5) |  | CCc1c(C#N)c(S[C@H](C(N)=O)c2ccccc2)nc(N2CC(N)C2)c1C#N (stereo in doubt) [Example 635, 2-((6-(3-aminoazetidin-1-yl)-3,5-dicyano-4-ethylpyridin-2-yl)thio)-2-phenylacetamide] |  | 
> 31600 |  | 316 to 1000 | CCc1c(C#N)c(SC(C(N)=O)c2ccncc2)nc(N2CCN(C)C(=O)C2)c1C#N (stereo not shown) [Example 10, 2-{[3,5-dicyano-4-ethyl-6-(4-methyl-3-oxopiperazin-1-yl)pyridin-2-yl]sulfanyl}-2-(pyridin-4-yl)acetamide] |  | 
316 to 1000 |  | 316 to 1000 | CCc1c(C#N)c(SC(C(N)=O)c2ccccc2)nc(N2CCN(C3CCNCC3)CC2)c1C#N (stereo not shown) [Example 13, 2-({3,5-dicyano-4-ethyl-6-[4-(piperidin-4-yl)piperazin-1-yl]pyridin-2-yl}sulfanyl)-2-phenylacetamide] |  | 
316 to 1000 | D (Category D: ≥6.5) |  | N#Cc1c(SC(C(N)=O)c2ccccc2)nc(N2CCNC(CO)C2)c(C#N)c1C1CC1 (stereo not shown) [Example 14, 2-({3,5-dicyano-4-cyclopropyl-6-[3-(hydroxymethyl)piperazin-1-yl]pyridin-2-yl}sulfanyl)-2-phenylacetamide] |  | 
< 316 | D (Category D: ≥6.5) |  | N#Cc1c(SC(C(N)=O)c2ccccc2)nc(N2CCC(N3CCOCC3)CC2)c(C#N)c1C1CC1 (stereo not shown) [Example 16] |  | 
< 316 |  | 316 to 1000 | CC1CN(c2nc(SC(C(N)=O)c3ccccc3)c(C#N)c(C3CC3)c2C#N)CCN1 (stereo not shown) [Example 19, 2-((3,5-Dicyano-4-cyclopropyl-6-(3-methylpiperazin-1-yl)pyridin-2-yl)thio)-2-phenylacetamide] |  | 
1000 to 31600 | D (Category D: ≥6.5) |  | N#Cc1c(SC(C(N)=O)c2ccccc2)nc(N2CCC(O)(CN)CC2)c(C#N)c1C1CC1 (stereo not shown) [Example 23] |  | 
< 316 | D (Category D: ≥6.5) |  | CNC1CCCN(c2nc(SC(C(N)=O)c3ccccc3)c(C#N)c(C3CC3)c2C#N)C1 (stereo not shown) [Example 24, 2-((3,5-dicyano-4-cyclopropyl-6-(3-(methylamino)piperidin-1-yl)pyridin-2-yl)thio)-2-phenylacetamide] |  | 
> 31600 |  | 316 to 1000 | CN(C)c1nc(SC(C(N)=O)c2ccncc2)c(C#N)c(C2CC2)c1C#N (stereo not shown) [Example 26, 2-((3,5-dicyano-4-cyclopropyl-6-(dimethylamino)pyridin-2-yl)thio)-2-(pyridin-4-yl)acetamide] |  | 
> 31600 | D (Category D: ≥6.5) |  | CCc1c(C#N)c(SC(C(N)=O)c2ccncc2)nc(N(C)C)c1C#N (stereo not shown) [Example 27, 2-((3,5-dicyano-6-(dimethylamino)-4-ethylpyridin-2-yl)thio)-2-(pyridin-4-yl)acetamide] |  | 

SMILES | EC50 ([1]; HbF ELISA, day 7 EPCs, 5 days) [nM] | DNMT1 BioChemical (pIC50 category) (DNMT1) | IC50 (DNMT1) [nM] | EPC ELISA (pEC50 category) ([1]; HbF ELISA, day 7 EPCs, 5 days) | EC50 [1] [nM]
CCc1c(C#N)c(S[C@@H](C(N)=O)c2ccccc2)nc(N2CCC(O)(CN)C2)c1C#N.Cl (stereo in doubt) [Example 423, (R)-2-((6-((R)-3-(aminomethyl)-3-hydroxypyrrolidin-1-yl)-3,5-dicyano-4-ethylpyridin-2-yl)thio)-2-phenylacetamide hydrochloride] |  | D (Category D: ≥6.5) |  | C (Category C: 6.0 ≤ x < 6.5) | 
CCc1c(C#N)c(SC(C(N)=O)c2ccccc2)nc(N2CCC3(CCNC3)CC2)c1C#N.O=C(O)C(F)(F)F (stereo not shown) [Example 17, 2-((3,5-dicyano-4-ethyl-6-(2,8-diazaspiro[4.5]decan-8-yl)pyridin-2-yl)thio)-2-phenylacetamide; 2,2,2-trifluoroacetic acid] |  | D (Category D: ≥6.5) |  |  | < 316
